Experimental data from patent US7060721B1, “Imidazole compounds and medicinal use thereof” (Fujisawa Pharmaceutical Co., Ltd., priority 1998, dated 2006).

Row | melting point | SMILES
1 | 156 to 157 °C | CCCCCOc1ccc(Cn2c(C)nc(Cl)c2/C=C(\C)C(=O)NS(=O)(=O)/C=C/c2ccccc2)c(Cl)c1 [Example 71, (E)-3-(4-chloro-1-(2-chloro-4-(1-pentyloxy)benzyl)-2-methylimidazol-5-yl)-2-methyl-N-((E)-2-phenylethenesulfonyl)-2-propenamide]
2 | 171 to 172 °C | CCCCCOc1ccc(Cn2c(/C=C(\Cc3ccccc3)C(=O)NS(=O)(=O)/C=C/c3ccccc3)cnc2C)c(Cl)c1 [Example 67, (E)-2-benzyl-3-(1-(2-chloro-4-(1-pentyloxy)benzyl)-2-methylimidazol-5-yl)-N-((E)-2-phenylethenesulfonyl)-2-propenamide]
3 | 234 to 235 °C | Cc1nc(Cl)c(/C=C/C(=O)NS(=O)(=O)c2ccc(Br)s2)n1Cc1ccc(-c2ccccc2)cc1Cl [Example 14, (E)-N-((5-bromo-2-thienyl)sulfonyl)-3-(4-chloro-1-(2-chloro-4-phenylbenzyl)-2-methylimidazol-5-yl)-2-propenamide]
4 | 210 to 213 °C | CCCCS(=O)(=O)NC(=O)/C=C/c1c(Cl)nc(CC)n1Cc1ccc(/C=C/c2ccccc2)cc1Cl [Example 61, (E)-N-(1-butanesulfonyl)-3-(4-chloro-1-(2-chloro-4-((E)-2-phenylethenyl)benzyl)-2-ethylimidazol-5-yl)-2-propenamide]
5 | 197 to 200 °C | CCC/C=C/S(=O)(=O)NC(=O)/C=C/c1c(Cl)nc(CC)n1Cc1ccc(/C=C/c2ccccc2)cc1Cl [Example 63, (E)-3-(4-chloro-1-(2-chloro-4-((E)-2-phenylethenyl)benzyl)-2-ethylimidazol-5-yl)-N-((E)-1-penten-1-ylsulfonyl)-2-propenamide]
6 | 245 to 247 °C | Cc1nc(Cl)c(/C=C/C(=O)NS(=O)(=O)c2ccccc2)n1Cc1ccc(-c2ccccc2)cc1Cl [Example 10, (E)-N-benzenesulfonyl-3-[4-chloro-1-(2-chloro-4-phenylbenzyl)-2-methylimidazol-5-yl]-2-propenamide]
7 | 199 to 201 °C | CCCOc1ccc(Cn2c(C)nc(Cl)c2/C=C/C(=O)NS(=O)(=O)/C=C/c2ccccc2)c(Cl)c1 [Example 16, (E)-3-(4-chloro-1-(2-chloro-4-(1-propoxy)benzyl)-2-methylimidazol-5-yl)-N-(((E)-2-phenylethenyl)sulfonyl)-2-propenamide]

The remaining lines, values behind:

Row | SMILES | melting point
8 | CCCCCOc1ccc(Cn2c(/C=C(\CCCCC)C(=O)NS(=O)(=O)/C=C/c3ccccc3)cnc2C)c(Cl)c1 [Example 68, (E)-3-(1-(2-chloro-4-(1-pentyloxy)benzyl)-2-methylimidazol-5-yl)-2-(1-pentyl)-N-((E)-2-phenylethenesulfonyl)-2-propenamide] | 168 to 169 °C
9 | Cc1nc(Cl)c(/C=C/C(=O)NS(=O)(=O)/C=C/c2ccccc2)n1Cc1ccc(-c2cccs2)cc1Cl [Example 4, (2E)-3-(4-chloro-1-(2-chloro-4-(2-thienyl)benzyl)-2-methylimidazol-5-yl)-N-(((E)-2-phenylethenyl)sulfonyl)-2-propenamide] | 246 to 248 °C
10 | Cc1nc(Cl)c(/C=C/C(=O)NS(=O)(=O)/C=C/c2ccccc2)n1Cc1ccc(OCc2ccccc2)cc1Cl [Example 25, (E)-3-(1-(4-benzyloxy-2-chlorobenzyl)-4-chloro-2-methylimidazol-5-yl)-N-(((E)-2-phenylethenyl)sulfonyl)-2-propenamide] | 225 to 227 °C
11 | Cc1nc(Cl)c(/C=C/C(=O)NS(=O)(=O)/C=C/c2ccccc2)n1Cc1ccc(-c2ccco2)cc1Cl [Example 2, (2E)-3-(4-chloro-1-(2-chloro-4-(2-furyl)benzyl)-2-methylimidazol-5-yl)-N-(((E)-2-phenylethenyl)sulfonyl)-2-propenamide] | 227 to 228 °C
12 | Cc1nc(Cl)c(/C=C/C(=O)NS(=O)(=O)/C=C/c2ccccc2)n1Cc1ccc(COc2ccccc2)cc1Cl [Example 31, (E)-3-(4-chloro-1-(2-chloro-4-(phenoxymethyl)benzyl)-2-methylimidazol-5-yl)-N-(((E)-2-phenylethenyl)sulfonyl)-2-propenamide] | 202 to 203 °C
13 | Cc1nc(Cl)c(/C=C/C(=O)NS(=O)(=O)/C=C/c2ccccc2)n1Cc1ccc(/C=C/c2ccccc2)cc1Cl [Example 35, (E)-3-(4-chloro-1-(2-chloro-4-((E)-2-phenylethenyl)benzyl)-2-methylimidazol-5-yl)-N-(((E)-2-phenylethenyl)sulfonyl)-2-propenamide] | 230 to 232 °C
14 | CCCCCS(=O)(=O)NC(=O)/C=C/c1c(Cl)nc(CC)n1Cc1ccc(/C=C/c2ccccc2)cc1Cl [Example 62, (E)-3-(4-chloro-1-(2-chloro-4-((E)-2-phenylethenyl)benzyl)-2-ethylimidazol-5-yl)-N-(1-pentanesulfonyl)-2-propenamide] | 197 to 200 °C
15 | CCC/C=C/S(=O)(=O)NC(=O)/C=C/c1c(Cl)nc(C)n1Cc1ccc(/C=C/c2ccccc2)cc1Cl [Example 42, (E)-3-(4-chloro-1-(2-chloro-4-((E)-2-phenylethenyl)benzyl)-2-methylimidazol-5-yl)-N-((E)-1-penten-1-ylsulfonyl)-2-propenamide] | 226 to 228 °C
16 | CCc1nc(Cl)c(/C=C/C(=O)NS(=O)(=O)c2ccc(C)cc2)n1Cc1ccc(/C=C/c2ccccc2)cc1Cl [Example 60, (E)-3-(4-chloro-1-(2-chloro-4-((E)-2-phenylethenyl)benzyl)-2-ethylimidazol-5-yl)-N-(4-methylbenzenesulfonyl)-2-propenamide] | 250 to 252 °C
17 | Cc1nc(C)n(Cc2ccc(Br)cc2Cl)c1/C=C/C(=O)NS(=O)(=O)/C=C/c1ccccc1 [Example 64, (E)-3-(1-(4-bromo-2-chlorobenzyl)-2,4-dimethylimidazol-5-yl)-N-((E)-2-phenylethenesulfonyl)-2-propenamide] | 251 to 253 °C
18 | CCCCCS(=O)(=O)NC(=O)/C=C/c1c(Cl)nc(C)n1Cc1ccc(-c2ccccc2)cc1Cl [Example 9, (E)-3-[4-chloro-1-(2-chloro-4-phenylbenzyl)-2-methylimidazol-5-yl]-N-(1-pentanesulfonyl)-2-propenamide] | 203 to 204 °C
19 | CCCCCS(=O)(=O)NC(=O)/C=C/c1c(Cl)nc(C)n1Cc1ccc(/C=C/c2ccccc2)cc1Cl [Example 41, (E)-3-(4-chloro-1-(2-chloro-4-((E)-2-phenylethenyl)benzyl)-2-methylimidazol-5-yl)-N-(1-pentanesulfonyl)-2-propenamide] | 215 to 216 °C
20 | Cc1nc(Cl)c(/C=C/C(=O)NS(=O)(=O)/C=C/c2ccccc2)n1Cc1ccc([N+](=O)[O-])cc1Cl [Example 33, (E)-3-(4-chloro-1-(2-chloro-4-nitrobenzyl)-2-methylimidazol-5-yl)-N-(((E)-2-phenylethenyl)sulfonyl)-2-propenamide] | 199 to 201 °C
21 | Cc1nc(Cl)c(/C=C/C(=O)NS(=O)(=O)/C=C/c2ccccc2)n1Cc1ccc(Br)cc1Cl [Example 8, (E)-3-(1-(4-bromo-2-chlorobenzyl)-4-chloro-2-methylimidazol-5-yl)-N-(((E)-2-phenylethenyl)sulfonyl)-2-propenamide] | 250 to 251 °C
